pIC50: −log10 of the molar value. Structures can show the parent of a compound that is named as a salt.
Legend:
sodium channel = assay: Guanidine influx assay (14C-guanidine radiotracer flux, in vitro); format: cell-based, human or rat; conditions: guanidine influx assay using a known cell line that expresses a sodium channel
Method in brief: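 IC50 derives from a four-parameter logistic fit of 14C-guanidine uptake, test agent serially half-diluted around a 1 μM midpoint. Flux was driven by aconitine in low-sodium HEPES/choline saline at ambient temperature, using endogenous or recombinant human or rat sodium-channel cell lines plated ~100,000/well for 20–24 h.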

CYP3A4 = CYP3A4 (Homo sapiens, UniProt P08684); assay: Cytochrome P450 (CYP450) Inhibition Assay, CYP3A4 (Vivid fluorescence, BOMCC substrate); conditions: human, P450 Baculosomes (recombinant CYP3A4), probe BOMCC (Vivid substrate)
Sequence of CYP3A4 (P08684 whole entry): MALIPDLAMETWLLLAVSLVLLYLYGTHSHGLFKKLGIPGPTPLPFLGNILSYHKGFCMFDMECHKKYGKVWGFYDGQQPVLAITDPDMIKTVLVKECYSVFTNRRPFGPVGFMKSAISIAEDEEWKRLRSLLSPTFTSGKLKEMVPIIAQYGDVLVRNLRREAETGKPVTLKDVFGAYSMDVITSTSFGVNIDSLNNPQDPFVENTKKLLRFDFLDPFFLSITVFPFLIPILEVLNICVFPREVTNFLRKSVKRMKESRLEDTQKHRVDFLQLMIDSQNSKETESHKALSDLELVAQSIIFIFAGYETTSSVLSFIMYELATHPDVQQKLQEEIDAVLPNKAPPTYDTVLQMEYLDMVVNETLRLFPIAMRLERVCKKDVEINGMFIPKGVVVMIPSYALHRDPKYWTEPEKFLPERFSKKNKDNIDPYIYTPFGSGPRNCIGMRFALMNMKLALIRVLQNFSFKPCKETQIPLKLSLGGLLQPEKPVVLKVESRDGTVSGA

Row | pIC50 (sodium channel) | inhibition at 10 µM (CYP3A4) | pIC50 (sodium channel; activity level class) | SMILES
1 | 6.00 to 7.00 | < 50% |  | N#Cc1cccc2c1C1(COc3cc4c(cc31)CCO4)C(=O)N2C[C@H]1CCCO1 (stereo partly drawn) [Example 11.35, 2′-oxo-1′-[(2R)-tetrahydrofuran-2-ylmethyl]-1′,2′,5,6-tetrahydrospiro[benzo[1,2-b:5,4-b′]difuran-3,3′-indole]-4′-carbonitrile]
2 | 5.00 to 6.00 | > 50% |  | CC(C)N1CCC(CN2C(=O)C3(COc4cc5c(cc43)CCO5)c3ccccc32)CC1 (centres unmarked) [Example 11.6, 1′-{[1-(1-methylethyl)piperidin-4-yl]methyl}-5,6-dihydrospiro[benzo[1,2-b:5,4-b′]difuran-3,3′-indol]-2′(1′H)-one]
3 | 5.00 to 6.00 | < 50% |  | O=C1N(CC2CCNCC2)c2ccccc2C12COc1cc3c(cc12)CCO3 (centres unmarked) [Example 11.5, 1-(piperidin-4-ylmethyl)-5,6-dihydrospiro[benzo[1,2-b:5,4-b′]difuran-3,3′-indol]-2′(1′H)-one]
4 | 6.00 to 7.00 | < 50% |  | CC(C)Oc1ccc2c(c1)OCC21C(=O)N(C[C@H]2CCCO2)c2ccccc21 (stereo partly drawn) [Example 11.54, 6-(1-methylethoxy)-1′-[(2R)-tetrahydrofuran-2-ylmethyl]spiro[1-benzofuran-3,3′-indol]-2′(1′H)-one]
5 | 6.00 to 7.00 | > 50% |  | CNC(=O)c1ccc(CN2C(=O)C3(COc4cc5c(cc43)CCO5)c3ccccc32)o1 (centres unmarked) [Example 13.2, N-methyl-5-[(2′-oxo-5,6-dihydrospiro[benzo[1,2-b:5,4-b′]difuran-3,3′-indol]-1′(2′H)-yl)methyl]furan-2-carboxamide]
6 | 6.00 to 7.00 | < 50% |  | O=C(O)c1ccc(CN2C(=O)C3(COc4cc5c(cc43)CCO5)c3ccccc32)cc1 (centres unmarked) [Example 11.31, 4-[(2′-oxo-5,6-dihydrospiro[benzo[1,2-b:5,4-b′]difuran-3,3′-indol]-1′(2′H)-yl)methyl]benzoic acid]
7 | 5.00 to 6.00 | < 50% |  | CNC(=O)c1cccnc1CN1C(=O)C2(COc3cc4c(cc32)OCCO4)c2ccccc21 (centres unmarked) [Example 12.63, N-methyl-2-[(2′-oxo-2,3-dihydrospiro[furo[2,3-g][1,4]benzodioxine-8,3′-indol]-1′(2′H)-yl)methyl]pyridine-3-carboxamide]
8 | 6.00 to 7.00 | < 50% |  | O=C(Nc1ccccc1F)c1ccc(CN2C(=O)C3(COc4cc5c(cc43)CCO5)c3ccccc32)cc1 (centres unmarked) [Example 12.29, N-(2-fluorophenyl)-4-[(2′-oxo-5,6-dihydrospiro[benzo[1,2-b:5,4-b′]difuran-3,3′-indol]-1′(2′H)-yl)methyl]benzamide]
9 | 5.00 to 6.00 | < 50% |  | O=C(O)c1ccccc1CN1C(=O)C2(COc3cc4c(cc32)CCO4)c2ccccc21 (centres unmarked) [Example 11.30, 2-[(2′-oxo-5,6-dihydrospiro[benzo[1,2-b:5,4-b′]difuran-3,3′-indol]-1′(2′H)-yl)methyl]benzoic acid]
10 | 5.00 to 6.00 | > 50% |  | O=C1N(C[C@H]2CCCO2)c2cccc(-c3csc4ccccc34)c2C12COc1cc3c(cc12)CCO3 (stereo partly drawn) [Example 16.3, 4′-(1-benzothiophen-3-yl)-1′-[(2R)-tetrahydrofuran-2-ylmethyl]-5,6-dihydrospiro[benzo[1,2-b:5,4-b′]difuran-3,3′-indol]-2′(1′H)-one]
11 | 7.00 to 9.00 | > 50% |  | NC(=O)c1ccc(CN2C(=O)C3(COc4cc5c(cc43)CCO5)c3ccccc32)cc1 (centres unmarked) [Example 12.31, 4-[(2′-oxo-5,6-dihydrospiro[benzo[1,2-b:5,4-b′]difuran-3,3′-indol]-1′(2′H)-yl)methyl]benzamide]
12 | 5.00 to 6.00 | > 50% |  | CCN1CCC(CN2C(=O)C3(COc4cc5c(cc43)CCO5)c3ccccc32)CC1 (centres unmarked) [Example 11.8, 1-[(1-ethylpiperidin-4-yl)methyl]-5,6-dihydrospiro[benzo[1,2-b:5,4-b′]difuran-3,3′-indol]-2′(1′H)-one]
13 | 7.00 to 9.00 | > 50% |  | CN1CCC(CN2C(=O)C3(COc4cc(F)c(F)cc43)c3ccccc32)CC1 (centres unmarked) [Example 11.112, 5,6-difluoro-1′-[(1-methylpiperidin-4-yl)methyl]spiro[1-benzofuran-3,3′-indol]-2′(1′H)-one hydrochloride]
14 | 6.00 to 7.00 | > 50% |  | O=C(NCCc1cccs1)c1ccc(CN2C(=O)C3(COc4cc5c(cc43)CCO5)c3ccccc32)cc1 (centres unmarked) [Example 12.30, 4-[(2′-oxo-5,6-dihydrospiro[benzo[1,2-b:5,4-b′]difuran-3,3′-indol]-1′(2′H)-yl)methyl]-N-(2-thiophen-2-ylethyl)benzamide]

Continued, compound first:

Row | SMILES | pIC50 (sodium channel) | inhibition at 10 µM (CYP3A4) | pIC50 (sodium channel; activity level class)
15 | O=C1N(Cc2cc(F)cc(F)c2)c2ccccc2C12COc1cc3c(cc12)OCCO3 (centres unmarked) [Example 7.20, 1′-(3,5-difluorobenzyl)-2,3-dihydrospiro[furo[2,3-g][1,4]benzodioxine-8,3′-indol]-2′(1′H)-one] |  | > 50% | 7.00 to 9.00
16 | COc1ccc2c(c1)OCC21C(=O)N(CC2CCOCC2)c2ccccc21 (centres unmarked) [Example 9.35, 6-methoxy-1′-(tetrahydro-2H-pyran-4-ylmethyl)spiro[1-benzofuran-3,3′-indol]-2′(1′H)-one] |  | > 50% | 6.00 to 7.00
17 | O=C1N(Cc2cccc(F)c2F)c2ccccc2C12COc1cc3c(cc12)OCCO3 (centres unmarked) [Example 7.19, 1-(2,3-difluorobenzyl)-2,3-dihydrospiro[furo[2,3-g][1,4]benzodioxine-8,3′-indol]-2′(1′H)-one] |  | > 50% | 7.00 to 9.00
18 | CCCCOc1ccc(-c2cccc3c2C2(COc4cc5c(cc42)CCO5)C(=O)N3C[C@H]2CCCO2)cc1 (stereo partly drawn) [Example 16.8, 4′-(4-butoxyphenyl)-1′-[(2R)-tetrahydrofuran-2-ylmethyl]-5,6-dihydrospiro[benzo[1,2-b:5,4-b′]difuran-3,3′-indol]-2′(1′H)-one] | 6.00 to 7.00 | < 50% | 
19 | N#Cc1ccc2c(c1)OCC21C(=O)N(Cc2ccc3c(c2)OCCO3)c2ccccc21 (centres unmarked) [Example 4.111, 1′-(2,3-dihydro-1,4-benzodioxin-6-ylmethyl)-2′-oxo-1′,2′-dihydrospiro[1-benzofuran-3,3′-indole]-6-carbonitrile] |  | < 50% | 6.00 to 7.00
20 | CC1(C)COC(C)(CCN2C(=O)C3(COc4cc5c(cc43)OCCO5)c3ccccc32)OC1 (centres unmarked) [Example 7.28] |  | > 50% | 7.00 to 9.00
21 | O=C1N(Cc2ccccc2OC(F)(F)F)c2ccccc2C12COc1cc3c(cc12)OCCO3 (centres unmarked) [Example 7.27, 1′-[(2-trifluoromethoxy)benzyl]-2,3-dihydrospiro[furo[2,3-g][1,4]benzodioxine-8,3′-indol]-2′(1′H)-one] |  | < 50% | 7.00 to 9.00
22 | Cn1cc(CN2C(=O)C3(COc4cc5c(cc43)CCO5)c3ccccc32)c(C(F)(F)F)n1 (centres unmarked) [Example 4.9, 1′-{[1-methyl-3-(trifluoromethyl)-1H-pyrazol-4-yl]methyl}-5,6-dihydrospiro[benzo[1,2-b:5,4-b′]difuran-3,3′-indol]-2′(1′H)-one] |  | > 50% | 6.00 to 7.00
23 | O=C1N(Cc2ccccc2)c2ccccc2C12COc1cc3c(cc12)CCO3 (centres unmarked) [Example 4.14, 1′-benzyl-5,6-dihydrospiro[benzo[1,2-b:5,4-b′]difuran-3,3′-indol]-2′(1′H)-one] |  | > 50% | 7.00 to 9.00
24 | O=C1N(Cc2ccccn2)c2ccccc2C12COc1cc3c(c(F)c12)OCCO3 (centres unmarked) [Example 5.25, 9-fluoro-1′-(pyridin-2-ylmethyl)-2,3-dihydro-spiro[furo[2,3-g][1,4]benzodioxine-8,3′-indol]-2′(1′H)-one] |  | > 50% | 7.00 to 9.00
25 | O=C1N(Cc2ncccc2C(F)(F)F)c2cccc(F)c2C12COc1cc3c(cc12)OCCO3 (centres unmarked) [Example 5.20, 4′-fluoro-1′-{[3-(trifluoromethyl)pyridin-2-yl]methyl}-2,3-dihydrospiro[furo[2,3-g][1,4]benzodioxine-8,3′-indol]-2′(1′H)-one] |  | < 50% | 7.00 to 9.00
26 | COCCOc1ccc2c(c1)C1(CO2)C(=O)Nc2ccccc21 (centres unmarked) [Example 3.47, 5-(2-methoxyethoxy)spiro[1-benzofuran-3,3′-indol]-2′(1′H)-one] |  | < 50% | 5.00 to 6.00
27 | O=C1N(Cc2cc(C(F)(F)F)ccc2F)c2ccccc2C12COc1cc3c(cc12)OCCO3 (centres unmarked) [Example 7.26, 1′-[(2-fluoro-5-trifluoromethyl)benzyl]-2,3-dihydrospiro[furo[2,3-g][1,4]benzodioxine-8,3′-indol]-2′(1′H)-one] |  | < 50% | 7.00 to 9.00
28 | O=C1N(C[C@H]2CCCO2)c2c(F)cccc2C12COc1cc3c(cc12)CCO3 (stereo partly drawn) [Example 8.2, 7′-fluoro-1′-[(2R)-tetrahydrofuran-2-ylmethyl]-5,6-dihydrospiro[benzo[1,2-b:5,4-b′]difuran-3,3′-indol]-2′(1′H)-one] |  | < 50% | 7.00 to 9.00
29 | O=C1N(C[C@@H]2CCCO2)c2ccccc2C12COc1cc3c(cc12)CCO3 (stereo partly drawn) [Example 4.5, 1′-[(2S)-tetrahydrofuran-2-ylmethyl]-5,6-dihydrospiro[benzo[1,2-b:5,4-b′]difuran-3,3′-indol]-2′(1′H)-one] |  | < 50% | 7.00 to 9.00
30 | O=C1N(Cc2ccccn2)c2ccccc2C12COc1cc(F)c(F)cc12 (centres unmarked) [Example 9.64, 5,6-difluoro-1′-(pyridin-2-ylmethyl)spiro[1-benzofuran-3,3′-indol]-2′(1′H)-one] | 6.00 to 7.00 | < 50% | 
31 | O=C1N(Cc2c(F)cccc2C(F)(F)F)c2ccccc2C12COc1cc3c(cc12)OCCO3 (centres unmarked) [Example 7.25, 1′-[(2-fluoro-6-trifluoromethyl)benzyl]-2,3-dihydrospiro[furo[2,3-g][1,4]benzodioxine-8,3′-indol]-2′(1′H)-one] |  | < 50% | 7.00 to 9.00
